From patent publication US20230414657A1, “Novel compositions for neutralizing toxic effects of hydrogen peroxide in living cells or tissues” (Dzala LLC, priority 2020, published 2023)

Experiments:
C. elegans [1] = experiment: Oxygen consumption rate (OCR), Seahorse XFe96; assay type: in vivo; settings: H2O2 alone (100 mM)
Description: Oxygen consumption of worms was measured with a Seahorse XFe96 system (Seahorse Bioscience, North Billerica, MA), as previously described^4. L3 larvae of the different strains were grown on plates or in liquid culture and supplemented for 2-4 days as described for each experiment. After removing bacteria and debris, approximately 100 worms were pipetted into each well of a 96-well Seahorse XF^e assay plate and OCR was measured until it stabilized. Then, 3 subsequent measurements were made at 6.5-min intervals. Finally, the exact number of worms in each well was counted and used for normalization. A small number of abnormal readings were also filtered out at this stage. On average, 7-8 wells (technical replicates) were used for each condition. Normalized OCR values were averaged for the last 3 measurements for each strain and condition. Four biological replicates were analyzed for each condition.

C. elegans [2] = experiment: Growth rate / worm size; assay type: in vivo; settings: H2O2 alone (100 mM)
Description: Synchronized L1 worms were incubated at 15° C. on plates or in liquid culture and exposed to different conditions as indicated. Single worms were selected randomly from the plates or aliquots were taken from the liquid cultures and added to NGM plates for immediate visualization. 25 worms per treatment were measured at 24-48 hr intervals and all growth curves were done four times.

C. elegans [3] = system: C. elegans
Description: A population of synchronized L1 larvae was added to 30-ml glass tubes containing 2.5 ml of S-complete medium (liquid culture)^2 and NA22 or induced RNAi bacteria at an OD600 of 1.9. […] Worms were incubated at 15° C. and 150 rpm in a shaking incubator for 2-6 days, refreshing the medium every 2 days.
Briefly, for the treatment during larval development worms were incubated in liquid culture under different conditions from L1 until L4, and then transferred onto control NGM plates until death. During the reproductive period (days 1-8), worms were transferred to fresh plates every other day to separate them from their progeny. […] Worms that were missing, displaying internal egg hatching, losing vulva integrity, and burrowing into NGM agar were censored. Progeny number and embryonic lethality was determined the day after transferring the adult animals to fresh plates. Statistical analyses of lifespan were calculated by Log-rank (Mantel-Cox) tests on the Kaplan-Meier curves in GraphPad Prism. For progeny number and embryonic lethality, the significance of differences between conditions was determined using an unpaired t-test in GraphPadPrism 8.0. All experiments were performed in triplicate.

C. elegans [4] = experiment: Quantification of glutathione (GSH/GSSG-Glo); assay type: in vivo
Description: Sample preparation was performed as described previously with some modifications^6. From each condition 10,000 synchronized animals were harvested and washed 3 times with sterile water. […] To thoroughly lyse the worms, 5 cycles of freezing and thawing were performed in a water bath at 37° C., followed by a 1-min sonication. The samples were then centrifuged and the supernatant tested for protein estimation and GSH quantification. Total GSH, GSSG, and GSH/GSSG ratios were quantified using the GSH/GSSG-Glo assay kit (Promega) following the instructions of the manufacturer. Briefly, each sample was tested in triplicate in 96-well culture plates with total glutathione or GSSG lysis reagent, for total glutathione or GSSG measurement, respectively. The GSH probe, luciferin-NT, was converted to luciferin, which is coupled to a firefly luciferase. The plates were then read in an […] plate reader (Perkin Elmer, United States). The GSSG value was subtracted from the total glutathione to calculate GSH levels and GSH/GSSG ratio. Four biological replicates were analyzed for each condition.

C. elegans [5] = experiment: NADPH and NADP+ quantification by LC-MS; assay type: in vivo
Description: To measure NADP^+ and NADPH from C. elegans, 10000-15000 L1 worms were exposed to each condition in duplicates for 3 days and then washed four times with H2O. […] 25 µM solutions of each nucleotide were treated in parallel as standards. Homogenization for 15 min at 4° C. and 300 g was carried out in a TissueLyser II (Qiagen) after adding ⅓ volume of 0.5 mm zirconium beads. The resulting mixture was centrifuged at 13,000 g and the supernatant transferred to a new tube.
LC-MS/MS analysis of the samples was performed on a high-performance liquid chromatography (HPLC) system (1200 Agilent) coupled online to G2-S QTOF (Waters). For normal phase chromatography Bridge Amide 3.5 ml (2.1×100 mm) column from Waters was used. The mobile phase composed of eluent A and eluent B (40% acetonitrile, 0.1 mM ammonium acetate and 0.01% NH40H) was applied with the following gradient program: Eluent B, from 0% to 100% within 18 min; 100% from 18 min to 21 min; 0% from 21 min to 26 min. The flow rate was set at 0.3 ml/min. The spray voltage was set at 3.0 kV and the source temperature was set at 120° C. Nitrogen was used as both cone gas (50 L/h) and desolvation gas (800 L/h), and argon as the collision gas. MS^E mode was used with Bridge Amide 3.5 µl (2.1×100 mm) column in ESI negative ionization polarity for the detection of the nucleosides. Mass chromatograms and mass spectral data were acquired and processed by MassLynx software (Waters). Three and four biological replicates were analyzed for each condition of mel-32 RNAi and EV, respectively.

[6] = system: gox-1, ghpr-1, gcst-1, mel-32 and gcs-1 genes; experiment: Quantitative real-time PCR of glycolate pathway genes; assay type: in vivo, C. elegans
Description: The differential expression of F41E6.5 (gox-1), C31C9.2 (ghpr-1), gcst-1, mel-32 and gcs-1 genes was measured using qRT-PCR. ˜5000 L1 N2 worms were exposed to each condition for 3 days at 15° Cas described above and then washed three times with H2O. Total RNA was isolated using the RNeasy Mini Kit (Qiagen) and equal amounts of all samples were reverse transcribed with SuperScript Ill (Invitrogen) using oligo(dT) 12-18 primers. cDNA quality was tested using standard PCR. qRT-PCR was performed using pre-designed TaqMan Gene Expression Assay (ThermoFischer Scientific) with at least three samples in triplicates. For the relative quantification of gene expression levels, the 2^−ΔΔCT method and results were normalized to the expression level of the cdc-42 gene. Expression levels were averaged over technical and biological replicates, […]

[7] = 0.25% hydrogen peroxide alone in drinking water
[8] = system: Staphylococcus aureus bacterial culture (ATCC 25923); experiment: Antimicrobial effect on bacterial culture, colony count; assay type: cell-based; settings: 2.5% solution
Description: A composition comprising 0.5% Glycine and 0.3% Hydrogen peroxide was prepared on 0.9% sodium chloride solution. Water was sterile purified.
After incubation for 4-5 minutes, sample from each test tube was diluted 1000 times with sterile water, and […] was spread evenly on standard tryptic soy agar petri plate. Plates were incubated at 37° C. for 24 hours and bacterial colonies were counted. As a positive control (100% survival), was taken a sample, where the composition was neutralized by sodium bisulfite instantly (FIG. 10).

Compound: OO [H2O2, hydrogen peroxide]
- Respiration rate (OCR) (C. elegans [1]): decline in the respiration rate
- Growth (C. elegans [2]): growth delay
- Reproductive capacity (C. elegans [3]; H2O2 alone): reduced reproductive capacity
- Lifespan (C. elegans [3]; exposed to H2O2 alone during larval stages, then control plates, control worms 18.5+/−1.19 days): 5.88 ± 1.47 days
- Oxidized form of glutathione (GSSG) (C. elegans [4]; H2O2 alone (100 mM)): 513 % of the control
- Total glutathione (C. elegans [4]; H2O2 alone (100 mM), 3 days): 51 % of the control
- GSH/GSSG ratio (C. elegans [4]; H2O2 alone, control 107.5): 11.3
- Reduction of GSH/GSSG ratio (C. elegans [4]; peroxide alone vs control): 10 -fold
- Ratio of NADPH to NADP+ (C. elegans [5]; H2O2 alone (100 mM), 3 days): significantly decreased
- Ratio of NADPH to NADP+ (C. elegans [5]; mel-32 knocked down worms, H2O2 alone): further decline
- Expression of gcst-1 ([6]; peroxide or glycolate supplementation): not significantly altered
- Expression of gox-1, ghpr-1, mel-32 and gcs-1 ([6]; worms exposed to different peroxide concentrations, 3 days): significant induction
- Effect on weight [7]: slight positive effect

Compound: O=S([O-])O.[Na+] [sodium bisulfite]
- Antimicrobial effect of the neutralizer on itself [8]: no antimicrobial effect
